No end group written: not given here.
Tests used:
proteinase K = proteinase K (Parengyodontium album, UniProt P06873); assay: Resistance to proteinase K digestion; details: isolated enzyme proteinase k
[1] = Temperature-dependent circular dichroism; format: physicochemical; details: CD; at 95°C

proteinase K, sequence (P06873 106-384, species assumed): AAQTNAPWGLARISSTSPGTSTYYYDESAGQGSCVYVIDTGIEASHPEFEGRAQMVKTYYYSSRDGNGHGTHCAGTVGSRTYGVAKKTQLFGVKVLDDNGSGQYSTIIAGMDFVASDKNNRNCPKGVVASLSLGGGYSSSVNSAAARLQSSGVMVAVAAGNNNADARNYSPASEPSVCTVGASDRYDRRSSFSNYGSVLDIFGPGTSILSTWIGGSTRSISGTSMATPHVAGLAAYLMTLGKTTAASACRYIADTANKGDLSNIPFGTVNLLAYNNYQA

| Substance | half-life (proteinase K) [min] | decrease in spectral intensity at 215 nm [1] [%] |
| --- | --- | --- |
| KTWNPATGKWTE [HP7] | 2 |  |
| Ac-TWNPATGKWT-NH2 [HP7Δ] | 0.6 |  |
| NS1 HBS: HBS-stabilized β-hairpin derived from the Ras-binding NS1 monobody (GGWKGQVYYVG; HBS hydrogen bond surrogate constraint) |  | 25 |
